Assays:
[1] = system: LNCaP tumor and major mouse organs/tissues; assay: Radiation dosimetry calculation with OLINDA software from biodistribution data; conditions: 25-g mouse
From the text: The biodistribution data (available in the Supplemental Table s 5- 6) were used to determine the kinetics input values required by OLINDA. First, each of the values was decayed to its corresponding time point (the values on the table are shown at injection time). Then the different time-points of the uptake data (%IA/g) for each organ were fitted to both mono- exponential ( ) and bi-exponential ( ) functions using in-house software developed in Python. The best fit was selected based on maximizing the coefficient of determination (R2) of the fit and minimizing the residuals. The areas under the curves were analytically calculated based on the parameters obtained from the best fit of each organ and this provided the kinetic input values required by OLINDA.
In the mouse case, the adrenals, blood, fat, and muscle are not modeled in the phantom. These organs were grouped together and included in what OLINDA calls the remainder of the body .
Lastly, the numbers of decays in the tumors were also calculated based on the biodistribution data of the mice and the values were inputted into the sphere model available in OLINDA.

[2] = system: LNCaP tumor-bearing mice; assay: Longitudinal SPECT/CT imaging of 177Lu-labeled ligands; format: in vivo
Description: SPECT/CT imaging experiments were conducted using the MILabs (Utrecht, The Netherlands) U-SPECT-II/CT scanner. Each tumor-bearing mouse (n = 1-2 was injected with ∼37 MBq (50-250 pmol) of ^177Lu-labeled compound through a lateral caudal tail vein. The mice were imaged at 1, 4, 24, 72, and 120 h after injection. At each time point, a 5-min CT scan was conducted first for anatomical reference followed by 2 × 30-min static emission scans acquired in list mode.

[3] = system: LNCaP tumor-bearing mice; assay: Radioligand therapy study in LNCaP tumor-bearing NRG mice; conditions: 37 MBq injected
[4] = system: LNCaP tumor-bearing mice; assay: Ex vivo biodistribution of 177Lu-labeled ligands in LNCaP tumor-bearing NRG mice
[5] = 1 h post-injection, listed as [177Lu]Lu-PSMA-617
[6] = 4 h post-injection, listed as [177Lu]Lu-PSMA-617

[^177Lu]Lu-PSMA-617
Kinetics value ([1]; source organ Brain): 6.64E-03 MBq-h/MBq
Kinetics value ([1]; source organ Cortical bone): 8.28E-03 MBq-h/MBq
Kinetics value ([1]; source organ Heart contents): 3.28E-03 MBq-h/MBq
Kinetics value ([1]; source organ Kidneys): 8.23E-01 MBq-h/MBq
Kinetics value ([1]; source organ Large intestine): 8.80E-03 MBq-h/MBq
Kinetics value ([1]; source organ Liver): 6.38E-02 MBq-h/MBq
Kinetics value ([1]; source organ Lungs): 4.85E-03 MBq-h/MBq
Kinetics value ([1]; source organ Pancreas): 4.76E-03 MBq-h/MBq
Kinetics value ([1]; source organ Remainder of the body): 1.68E-01 MBq-h/MBq
Kinetics value ([1]; source organ Small intestine): 2.63E-02 MBq-h/MBq
Kinetics value ([1]; source organ Spleen): 1.41E-02 MBq-h/MBq
Kinetics value ([1]; source organ Stomach): 2.34E-04 MBq-h/MBq
Kinetics value ([1]; source organ Testes): 4.23E-03 MBq-h/MBq
Kinetics value ([1]; source organ Thyroid): 4.01E-04 MBq-h/MBq
Kinetics value ([1]; source organ Urinary bladder contents): 8.04E-01 MBq-h/MBq
Excretion pathway (SPECT imaging) ([2]; mouse, in vivo): excreted mainly via the renal pathway
Tumor size change in SPECT/CT images ([2]; ~37 MBq injected): tumors shrank from Day 1 to Day 5
Median survival [3]: 63 days
Adrenal glands uptake ([4]; 1 h post-injection): 3.025 ± 0.939 %IA/g
Blood uptake ([4]; 1 h post-injection): 0.750 ± 0.119 %IA/g
Blood:Salivary gland uptake ratio ([4]; 1 h post-injection): < 1.0
Bone uptake ([4]; 1 h post-injection): 0.118 ± 0.026 %IA/g
Brain uptake ([4]; 1 h post-injection): 0.028 ± 0.007 %IA/g
Fat uptake ([4]; 1 h post-injection): 0.327 ± 0.069 %IA/g
Heart uptake ([4]; 1 h post-injection): 0.294 ± 0.045 %IA/g
Intestines uptake ([4]; 1 h post-injection): 0.275 ± 0.032 %IA/g
Kidneys uptake ([4]; 1 h post-injection): 79.7±11.7 %IA/g
Lacrimal glands uptake ([4]; 1 h post-injection): 0.068 ± 0.022 %IA/g
Liver uptake ([4]; 1 h post-injection): 0.224 ± 0.030 %IA/g
Lungs uptake ([4]; 1 h post-injection): 1.377 ± 0.152 %IA/g
Muscle uptake ([4]; 1 h post-injection): 0.177 ± 0.032 %IA/g
Pancreas uptake ([4]; 1 h post-injection): 0.387 ± 0.074 %IA/g
Salivary glands uptake ([4]; 1 h post-injection): 1.78±0.38 %IA/g
Spleen uptake ([4]; 1 h post-injection): 3.666 ± 1.342 %IA/g
Stomach uptake ([4]; 1 h post-injection): 0.130 ± 0.054 %IA/g
Testes uptake ([4]; 1 h post-injection): 0.433 ± 0.068 %IA/g
Thyroid uptake ([4]; 1 h post-injection): 0.556 ± 0.073 %IA/g
Tumor uptake ([4]; 1 h post-injection): 16.5±2.46 %IA/g
Tumor:Blood uptake ratio ([4]; 1 h post-injection): 22.5 ± 4.07
Tumor:Kidney uptake ratio ([4]; 1 h post-injection): 0.21 ± 0.04
Tumor:Muscle uptake ratio ([4]; 1 h post-injection): 94.3 ± 12.8
Tumor:Salivary gland uptake ratio ([4]; 1 h post-injection): 9.81 ± 3.33
Blood:Salivary gland uptake ratio [4, 5]: 0.44 ± 0.12
Kidneys uptake [4, 5]: 79.67 ± 11.68 %IA/g
Salivary glands uptake [4, 5]: 1.775 ± 0.381 %IA/g
Tumor uptake [4, 5]: 16.48 ± 2.456 %IA/g
Adrenal glands uptake ([4]; 4 h post-injection): 0.469 ± 0.527 %IA/g
Blood uptake ([4]; 4 h post-injection): 0.031 ± 0.017 %IA/g
Blood:Salivary gland uptake ratio ([4]; 4 h post-injection): 0.20 ± 0.06
Bone uptake ([4]; 4 h post-injection): 0.017 ± 0.007 %IA/g
Brain uptake ([4]; 4 h post-injection): 0.011 ± 0.001 %IA/g
Fat uptake ([4]; 4 h post-injection): 0.028 ± 0.011 %IA/g
Heart uptake ([4]; 4 h post-injection): 0.026 ± 0.006 %IA/g
Intestines uptake ([4]; 4 h post-injection): 0.135 ± 0.042 %IA/g
Kidneys uptake ([4]; 4 h post-injection): 13.1±9.60 %IA/g
Lacrimal glands uptake ([4]; 4 h post-injection): 0.079 ± 0.056 %IA/g
Liver uptake ([4]; 4 h post-injection): 0.056 ± 0.012 %IA/g
Lungs uptake ([4]; 4 h post-injection): 0.123 ± 0.052 %IA/g
Muscle uptake ([4]; 4 h post-injection): 0.020 ± 0.004 %IA/g
Pancreas uptake ([4]; 4 h post-injection): 0.031 ± 0.012 %IA/g
Salivary glands uptake ([4]; 4 h post-injection): 0.14±0.04 %IA/g
Spleen uptake ([4]; 4 h post-injection): 0.222 ± 0.117 %IA/g
Stomach uptake ([4]; 4 h post-injection): 0.029 ± 0.017 %IA/g
Testes uptake ([4]; 4 h post-injection): 0.055 ± 0.018 %IA/g
Thyroid uptake ([4]; 4 h post-injection): 0.065 ± 0.027 %IA/g
Tumor uptake ([4]; 4 h post-injection): 14.24 ± 1.804 %IA/g
Tumor:Blood uptake ratio ([4]; 4 h post-injection): 593 ± 338
Tumor:Kidney uptake ratio ([4]; 4 h post-injection): 1.58 ± 0.98
Tumor:Muscle uptake ratio ([4]; 4 h post-injection): 748 ± 180
Tumor:Salivary gland uptake ratio ([4]; 4 h post-injection): 105 ± 28.0
Kidneys uptake [4, 6]: 13.06 ± 9.598 %IA/g
Salivary glands uptake [4, 6]: 0.142 ± 0.039 %IA/g
